# What was measured:
# [1] = test system: ventricular myocytes from FXN-KO and FXN-WT mice; experiment: Oxygen consumption rate (OCR), XFp24 Cell Mito Stress Test (Agilent Seahorse); format: cell-based, mouse; conditions: isolated ventricular myocytes
# Protocol: To investigate how mitochondrial respiration was affected in FA, OCR was measured herein using XFp24 Cell Mito Stress Test (Catalog #B05423; Agilent Seahorse). One day prior to the experiment, XFp24 cell culture plates were coated with gelatin/fibronectin at 37° C. Ventricular myocytes were enzymatically isolated from FXN-KO and FXN-WT mice. We dissociated myocytes in DMEM medium (Seahorse Bioscience), supplemented with 1 mM pyruvate, 2 mM glutamine, and 10 mM D-glucose. We plated 2500 myocytes/well into 24 well seahorse plates for 10 min. OCR were measured using the Seahorse Bioscience XF24 Extracellular Flux Analyzer (Seahorse Bioscience). Measurements were taken as the cells were incubated sequentially under four conditions: 1) basal levels were measured with no additives; 2) oligomycin (1.5 μM) was added to inhibit ATP synthase and OXPHOS, showing glycolysis alone reversibly; 3) FCCP (1 μM), a mitochondrial uncoupler, was added to induce maximal respiration; and 4) Antimycin A (10 μM), a Complex III inhibitor, was added to obtain non-mitochondrial oxygen consumption background. The Seahorse software was used to extract the results and plotted them using GraphPad Prism. OCR was normalized to cell number per well.
# [2] = test system: left ventricular myocytes from FXN-WT and FXN-KO; conditions: 10 μM FCCP added after 15 min of time-dependent recording over 22 min; FXN-WT and FXN-KO cardiomyocytes
# Protocol: The mitochondrial membrane potential (ΔΨm) was measured using tetramethyl rhodamine methyl ester (TMRM) dye. Left ventricular myocytes from the FXN-WT and FXN-KO were plated in an eight-well confocal chamber (LAB-TEK, DK, Denmark; Catalog #155409,) for 20 minutes, and cells were incubated with TMRM (10 nmol/L; Invitrogen; Catalog #T668) for 20 minutes in Tyrode solution at 37° C. and washed two times with Tyrode solution. After incubation with the dye, live cells were imaged for 20 min in 2 min intervals on a confocal microscope (Olympus-IX) using a 63X-oil objective. […] Confocal settings were identical for FXN-WT and the FXN-KO myocytes.
compound,measurement,setting,value
"N#CC(C#N)=NNc1ccc(OC(F)(F)F)cc1 [FCCP, carbonyl cyanide 4-(trifluoromethoxy) phenylhydrazone]",OCR after injection of FCCP,[1]; FCCP 1 μM,increased OCR to maximal levels
same,ΔΨm (TMRM fluorescence) after addition of FCCP,[2],decreased
"CC[C@H]1/C=C/C=C/C[C@@H](C)[C@H](O)[C@@](C)(O)C(=O)[C@@H](C)[C@H](O)[C@@H](C)C(=O)[C@@H](C)[C@H](O)[C@@H](C)/C=C/C(=O)O[C@@H]2[C@H](C)[C@H](CC1)O[C@]1(CC[C@H](C)[C@H](C[C@@H](C)O)O1)[C@H]2C [Oligomycin, oligomycin]",OCR after injection of oligomycin,[1]; oligomycin 1.5 μM,decreased
Antimycin A,OCR after injection of antimycin A,[1]; Antimycin A 10 μM,reduced

# From patent US20250057979A1, “CARDIAC CALCIUM HANDLING MACHINERY REMODELED IN FRIEDREICH'S ATAXIA” (University of South Florida, priority 2023, published 2025)
